System: passive cutaneous anaphylactic reaction (PCA)
Experiment: Inhibition of passive cutaneous anaphylaxis (PCA) in rats, reaginic antibody to egg albumin
Format: in vivo, rat
Settings: for inhibition in vivo at 3 mg/kg: dose 3.0 mg/kg (table head: p.o.; method b438: intravenously immediately before the antigen)
[1] = Rattus norvegicus, po, rats, 6 animals per dose

Row | Structure (SMILES) | inhibition in vivo at 3 mg/kg [1] | inhibition in vivo at 100 mg/kg (Rattus norvegicus, po, dose 100.0 mg/kg (table head: p.o.; method b438: intravenously immediately before the antigen), rats, 6 animals per dose, comparison compound) | times more substance that must be used than of 7-[3-(4-benzamido-piperidino)-propoxy]-3,4-dimethylcoumarin for comparable inhibition of the passive cutaneous anaphylactoid reaction (relative to 7-[3-(4-benzamido-piperidino)-propoxy]-3,4-dimethylcoumarin (Example 1), PCA test in vivo in rats)
1 | Cc1c(C)c2ccc(OCCCN3CCC(NC(=O)c4ccccc4)CC3)cc2oc1=O [Example 1, 7-[3-(4-Benzamido-piperidino)-propoxy]-3,4-dimethylcoumarin] | 50% | – | –
2 | Cc1c(C)c2ccc(OCCCN3CCC(NC(=O)c4cccs4)CC3)cc2oc1=O [Example 7b] | 23% | – | –
3 | CCN(CC)C(=O)N1CCN(C)CC1 [Diethylcarbamazin, 1-diethylcarbamoyl-4-methylpiperazine, reference compound] | – | 47% | about 40 times
4 | Cc1c(C)c2ccc(OCCCN3CCC(NC(=O)c4ccc(Cl)cc4)CC3)cc2oc1=O [Example 6, 7-{3-[4-(4-Chlorobenzamido)-piperidino]-propoxy}-3,4-dimethylcoumarin] | 30% | – | –
5 | Cc1c(C)c2ccc(OCCCN3CCC(NC(=O)c4ccc(F)cc4)CC3)cc2oc1=O [Example 2a, 3,4-Dimethyl-7-{3-[4-(4-fluoro-benzamido)-piperidino]-propoxy}-coumarin] | 59% | – | –
6 | Cc1cc(=O)n(C)c2ccc(OCCCN3CCC(NC(=O)c4ccccc4)CC3)cc12 [Example 10, 6-[3-(4-Benzamido-piperidino)-propoxy]-1,4-dimethyl-2-oxo-1,2-dihydroquinoline] | 54% | – | –
7 | COc1ccc(C(=O)NC2CCN(CCCOc3ccc4c(C)c(C)c(=O)oc4c3)CC2)cc1 [Example 2b, 3,4-Dimethyl-7-{3-[4-(4-methoxy-benzamido)-piperidino]-propoxy}-coumarin] | 36% | – | –
8 | Cc1cc(=O)[nH]c2ccc(OCCCN3CCC(NC(=O)c4ccccc4)CC3)cc12 [Example 8, 6-[3-(4-Benzamido-piperidino)-propoxy]-4-methyl-2-oxo-1,2-dihydroquinoline] | 34% | – | –
9 | Cc1cc(=O)oc2ccc(OCCCN3CCC(NC(=O)c4ccccc4)CC3)cc12 [Example 4a, 6-[3-(4-Benzamido-piperidino)-propoxy]-4-methyl-coumarin] | 61% | – | –
10 | Cc1c(C)c2ccc(OCCCN3CCC(NC(=O)c4ccc(C(C)(C)C)cc4)CC3)cc2oc1=O [Example 2d, 7-{3-[4-(4-t.-Butyl-benzamido)-piperidino]-propoxy}-3,4-dimethyl-coumarin] | 52% | – | –

From patent US4330549A, “Coumarins connected via an oxyalkyl group with a piperidine ring having anti-allergic action” (Boehringer Mannheim GmbH, priority 1979, dated 1982)
